Columns and labels:
Assay type in all cases: in vivo
Settings in all cases: 200 ppm, 100 = 100% disease control
[1] = tested on: Botrytis cinerea; assay: Test C: tomato Botrytis on tomato seedlings, sprayed the day before inoculation, visual disease rating
Summary of the method: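 Each compound is first taken up in acetone at 3% of the final volume and then brought to the desired ppm in a 50:50 acetone–water mix with 250 ppm surfactant (polyhydric alcohol esters). Tomato seedlings receive the suspension to run-off, normally at 200 ppm, occasionally 40 ppm.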

[2] = tested on: Alternaria solani; assay: Test D: tomato early blight, sprayed the day before inoculation, visual disease rating
Summary of the method: (§1)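 Test rate was 200 ppm, sprayed to run-off and equal to 500 g/ha, or 40 ppm where marked. The compound was first taken up in acetone at 3% of final volume and suspended in acetone/purified water (50/50) containing 250 ppm Trem® 014.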

[3] = tested on: Septoria nodorum; assay: Test F: wheat glume blotch on wheat seedlings, sprayed the day before inoculation, visual disease rating
Summary of the method: as §1

[4] = tested on: Septoria tritici; assay: Test G: wheat leaf blotch on wheat seedlings, sprayed the day before inoculation, visual disease rating
Summary of the method: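 Spray to run-off, 200 ppm (≈500 g/ha; starred = 40 ppm), acetone/water 50/50 + 250 ppm Trem® 014. Spore inoculation +1 d. 24° C saturated 48 h → 20° C 19 d. Visual rating.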

[5] = tested on: Puccinia recondita f. sp. tritici; assay: Test I: wheat leaf rust on wheat seedlings, sprayed the day before inoculation, visual disease rating
Summary of the method: as §1

[6] = tested on: Erysiphe graminis f. sp. tritici; assay: Test J: wheat powdery mildew on wheat seedlings, sprayed the day before inoculation, visual disease rating
Summary of the method: as §1

[7] = 0 = no control relative to controls

Compound	Test C disease control rating ([1]; 0 = no control) [%]	Test D disease control rating ([2]; 0 = no control) [%]	Test F disease control rating ([3]; 0 = no control) [%]	Test G disease control rating ([4]; 0 = no control) [%]	Test I disease control rating ([5]; 0 = no control) [%]	Test J disease control rating ([6]; 0 = no control) [%]	Test C disease control rating [1, 7] [%]	Test D disease control rating [2, 7] [%]	Test F disease control rating [3, 7] [%]	Test G disease control rating [4, 7] [%]	Test I disease control rating [5, 7] [%]	Test J disease control rating [6, 7] [%]
Cc1ccc(-n2cnc(Cl)c2-c2c(F)cccc2F)cc1F [compound 161]	99	71	0	1	80	100	–	–	–	–	–	–
COc1cc(Cl)cc(F)c1-c1c(Cl)nc(Br)n1-c1ccc(Cl)cc1 [compound 140]	–	–	–	–	–	–	0	0	0	93	55	39
Cc1ccc(-n2c(C)nc(Cl)c2-c2c(F)cc(F)cc2F)cc1 [compound 168]	97	99	84	98	100	100	–	–	–	–	–	–
Cc1ccc(-n2c(C)nc(Cl)c2-c2ccc(F)cc2Cl)cc1 [compound 188]	98	100	0	97	100	99	–	–	–	–	–	–
COc1cc(F)c(-c2c(Cl)nc(C)n2-c2ccc(Cl)cc2)c(Cl)c1 [compound 172]	99	99	100	98	99	99	–	–	–	–	–	–
Fc1cc(-n2c(Cl)nc(Cl)c2-c2cccnc2Cl)ccc1Cl [compound 458]	–	–	–	–	–	–	96	16	0	92	95	89
COc1cc(F)c(-c2c(Cl)nc(Cl)n2-c2ccc(Cl)c(F)c2)c(F)c1 [compound 240]	100	100	100	97	100	100	–	–	–	–	–	–
CSc1ccc(F)c(-c2c(Cl)nc(Br)n2-c2ccc(Cl)cc2)c1F [compound 231]	87	61	100	99	96	98	–	–	–	–	–	–
COc1cc(F)c(-c2c(Cl)nc(Br)n2-c2ccc(Cl)cc2)c(Cl)c1 [compound 171]	99	100	100	98	98	99	–	–	–	–	–	–
Cc1ccc(-n2c(C)nc(Cl)c2-c2c(F)cccc2Cl)cc1 [compound 190]	97	100	0	93	100	100	–	–	–	–	–	–
COc1ccc(F)c(-c2c(Cl)nc(Br)n2-c2ccc(C)cc2)c1F [compound 281]	100	100	97	96	100	100	–	–	–	–	–	–
Cc1nc(Cl)c(-c2cc(F)ccc2F)n1-c1ccc(Cl)cc1 [compound 93]	–	–	–	–	–	–	97	100	100	99	98	100
COc1cc(F)c(-c2c(C)ncn2-c2ccc(Cl)nc2)c(F)c1 [compound 254]	100	100	0	95	99	98	–	–	–	–	–	–
Cc1nn(C)c(-c2c(Cl)cccc2Cl)c1-c1cccc(F)c1 [compound 88]	–	–	–	–	–	–	75	0	0	0	68	99
